From patent US20250018030A1, “PHARMACEUTICAL COMPOSITION FOR PROMOTING CANCER IMMUNOTHERAPY AND METHOD FOR PROMOTING CANCER IMMUNOTHERAPY” (China Medical University, priority 2023, published 2025)

Assays:
Tc1 cells [1] = experiment: Intracellular cytokine staining / flow cytometry of genipin-treated skewed Tc1 cells; assay type: cell-based, Mouse
Method: (§1) Mouse lymph nodes and spleens were harvested, and naïve CD4 or CD8 T cells isolated via magnetic bead separation (STEMCELL Technologies) and activated in α-CD3 (10 μg/ml) and α-CD28 (1 μg/ml) pre-coated 96-well plates. Skewing conditions were as follows: Th1 cells/Tc1 cells ([…] 10 μ/ml α-IL-4), Th2 cells/Tc2 cells (20 ng/ml IL-4 and 10 μ/ml α-IFN-γ), Th17 cells/Tc17 cells (20 ng/ml IL-6, 1.25 ng/ml […], 20 ng/ml IL-1β, 20 ng/ml IL-23, 10 μg/ml α-IFN-γ and 10 μg/ml α-IL-4), and Treg cells (5 ng/ml TGF-β, 10 μg/ml α-IFN-γ and 10 μg/ml α-IL-4) in the indicated medium. Cells were cultured for 4-5 days followed by treatment with genipin (3.125 μM, 6.25 μM, 12.5 μM) or DMSO for 12-16 hours.
(§2) Monoclonal antibodies were purchased from BD Biosciences or eBioscience. For intracellular cytokine staining (ICS), cells were first restimulated by PMA/ionomycin for 5 hours in the presence of GolgiStop (BD Biosciences), followed by surface epitope staining markers before being fixed/permeabilized (BD Cytofix/Cytoperm™) and stained with antibodies targeting intracellular antigens. Cells were finally fixed with 1.5% formaldehyde for 10 minutes at room temperature and analyzed on a FACSVerse flow cytometer (BD Bioscience). Data were analyzed using FlowJo software (Tree Star Inc.).

Tc1 cells [2] = experiment: RNA-seq gene expression analysis of genipin-treated Tc1 cells; assay type: cell-based, Mouse
Method: For RNA-seq analysis, the differential gene expression analysis was conducted by RNA-seq quantification following the procedure of Illumina and was performed by Genomics (Taiwan). Low-quality bases and sequencing adapters in the raw data generated from the Illumina sequencer were removed, and the final library quality was assessed on the Agilent Bioanalyzer 2100 system. The gene expression profiles in the genipin-treated and control Tc1 cells were analyzed and compared. The differentially expressed genes were calculated by EBSeq, and functional analysis, such as (gene ontology) GO analysis, was performed using cluster Profiler. For real-time PCR, total RNA was extracted using the RNeasy Micro Kit (Qiagen), and cDNA was synthesized with the PrimeScript™ RT reagent kit (TakaRa). Real-time PCR amplification of IFN-γ was performed in triplicate using TaqMan Gene Expression Assay (Mm01168134_m1) in a Step One Plus system (Applied Biosystems). 18S primers were used as endogenous controls, and the relative gene expression was calculated using the 2^ΔΔCt method.

PBMC of PDAC patients = experiment: Ex vivo genipin treatment of PBMC of PDAC patients, flow cytometry; assay type: cell-based, human
Method: as §2
PDAC human subject study was approved by the Research Ethics Committee of China Medical University & Hospital (CMUH109-REC2-148). 10 ml of fresh blood and 0.1-0.5 mm^3 of tumor mass were collected on the same day from patients who underwent surgical resection. Monocytes were isolated from the patients' peripheral blood mononuclear cell (PBMC) or tumor mass. Cells were resuspended in RPMI medium containing 10% FBS and seeded at a density of 2×10^5/well in a 12-well plate. Cells were treated with genipin (12.5 μM, 25 μM) and incubated overnight before staining for the flow cytometry analysis.

Tc17 cells = experiment: Intracellular cytokine staining / flow cytometry of genipin-treated skewed Tc17 cells; assay type: cell-based, Mouse; settings: FIG. 1E-1G
Method: as §1, §2

[3] = genipin-treated Tc1 cells, FIG. 2D

What does the source list for COC(=O)C1=CO[C@@H](O)[C@@H]2C(CO)=CC[C@H]12 [genipin]?
IL-12R expression in Tc1 cells (Tc1 cells [1]; genipin 12.5 μM, FIG. 2O-2P): increased IL-12R expression; IFN-γ production in Tc1 cells (Tc1 cells [1]; genipin 3.125, 6.25, 12.5 μM, 12-16 hours, FIG. 1C-1D): promoted IFN-γ; T-bet expression in IFN-γ+CD8+ T cell population of Tc1 cells (Tc1 cells [1]; genipin-treated Tc1 cells, FIG. 1J): elevated the expression of T-bet; Expression of genes that control IFN-γ signaling, leukocyte activation and bioenergetic metabolism (GOBP enrichment) (Tc1 cells [2]; genipin 12.5 μM, FIG. 2C): correlated positively; Expression of genes related to T cell activation and migration (Tbx21, Ccl5, Eomes, Il12rb2, Ctla2a, Ctla2b) (Tc1 cells [2]; [3]): augmented the expression; Expression of glycolytic pathway genes (Hk2, Gck, Pfkl, Aldoc, Pgam1, Eno2, Ldha) (Tc1 cells [2]; [3]): increased expression; Tc1 cells (IFN-γ-producing CD8+ T cells) (PBMC of PDAC patients; genipin 12.5, 25 μM overnight, FIG. 8A-8B): increased Tc1 cells; Th1 cells population (IFN-γ-producing CD4+ T cells) (PBMC of PDAC patients; genipin overnight, FIG. 8E): no significant changes; Th17 cells (IL-17-producing CD4+ T cells) (PBMC of PDAC patients; genipin overnight, FIG. 8F): did not increase; IFN-γ production in Tc17 cells (Tc17 cells): promoted IFN-γ; IL-17 expression in Tc17 cells (Tc17 cells): without impacting IL-17 expression
